Experimental data reported in article PMC3917699, “Glucoamylase of Caulobacter crescentus CB15: cloning and expression in Escherichia coli and functional identification” (AMB Express, 2014).

Biological target: T1, CauloGA (Protein A-CauloGA fusion) (Caulobacter vibrioides, UniProt Q9A613)
T1 construct: gene CC_2282; putative signal peptide removed; N-terminal Staphylococcus Protein A (synthetic ZZ domain) fusion kept; pEZZ18, E. coli HB101; IgG Sepharose; fusion 96 kDa, CauloGA about 82 kDa
Assay: initial rate, glucose release (F-kit D-glucose), nonlinear regression
Assay type: biochemical
Settings: apparent substrate inhibition constant
Excerpt: initial rate, glucose release (F-kit D-glucose), nonlinear regression on CauloGA (Protein A-CauloGA fusion)

T1 sequence (Q9A613 entry or part of it): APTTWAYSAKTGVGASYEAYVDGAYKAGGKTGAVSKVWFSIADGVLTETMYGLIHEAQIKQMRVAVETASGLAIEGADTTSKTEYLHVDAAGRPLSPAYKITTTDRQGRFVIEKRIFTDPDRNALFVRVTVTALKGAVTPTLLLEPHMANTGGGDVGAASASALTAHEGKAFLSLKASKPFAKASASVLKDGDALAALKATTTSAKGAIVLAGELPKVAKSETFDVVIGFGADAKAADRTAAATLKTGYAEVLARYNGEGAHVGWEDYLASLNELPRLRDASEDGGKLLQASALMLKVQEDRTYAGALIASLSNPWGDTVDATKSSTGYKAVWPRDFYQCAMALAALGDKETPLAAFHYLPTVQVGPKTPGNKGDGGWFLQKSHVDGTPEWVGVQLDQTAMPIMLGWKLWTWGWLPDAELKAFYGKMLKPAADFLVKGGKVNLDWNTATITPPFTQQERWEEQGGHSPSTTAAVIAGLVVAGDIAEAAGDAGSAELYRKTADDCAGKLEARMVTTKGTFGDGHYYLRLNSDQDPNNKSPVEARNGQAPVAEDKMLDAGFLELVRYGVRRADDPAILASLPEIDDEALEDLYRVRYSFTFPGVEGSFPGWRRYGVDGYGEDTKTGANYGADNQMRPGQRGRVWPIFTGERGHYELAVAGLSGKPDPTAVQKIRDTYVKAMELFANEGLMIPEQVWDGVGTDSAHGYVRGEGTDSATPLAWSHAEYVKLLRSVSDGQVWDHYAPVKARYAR

Ki^b (0-9 mM substrate, pH 5.0, 30°C) [µM]	SMILES	further results
1250 ± 250	OC[C@H]1O[C@H](O[C@H]2[C@H](O)[C@@H](O)[C@@H](O[C@H]3[C@H](O)[C@@H](O)[C@@H](O[C@H]4[C@H](O)[C@@H](O)[C@@H](O[C@H]5[C@H](O)[C@@H](O)[C@@H](O[C@H]6[C@H](O)[C@@H](O)[C@@H](O[C@H]7[C@H](O)[C@@H](O)C(O)O[C@@H]7CO)O[C@@H]6CO)O[C@@H]5CO)O[C@@H]4CO)O[C@@H]3CO)O[C@@H]2CO)[C@H](O)[C@@H](O)[C@@H]1O (stereo partly drawn) [Maltoheptaose]	
1050 ± 80	OC[C@H]1O[C@H](O[C@H]2[C@H](O)[C@@H](O)[C@@H](O[C@H]3[C@H](O)[C@@H](O)[C@@H](O[C@H]4[C@H](O)[C@@H](O)[C@@H](O[C@H]5[C@H](O)[C@@H](O)[C@@H](O[C@H]6[C@H](O)[C@@H](O)C(O)O[C@@H]6CO)O[C@@H]5CO)O[C@@H]4CO)O[C@@H]3CO)O[C@@H]2CO)[C@H](O)[C@@H](O)[C@@H]1O (stereo partly drawn) [Maltohexaose]	
920 ± 40	OC[C@H]1O[C@H](O[C@H]2[C@H](O)[C@@H](O)[C@@H](O[C@H]3[C@H](O)[C@@H](O)[C@@H](O[C@H]4[C@H](O)[C@@H](O)[C@@H](O[C@H]5[C@H](O)[C@@H](O)C(O)O[C@@H]5CO)O[C@@H]4CO)O[C@@H]3CO)O[C@@H]2CO)[C@H](O)[C@@H](O)[C@@H]1O (stereo partly drawn) [Maltopentaose]	
	OC[C@H]1O[C@H](O[C@H]2[C@H](O)[C@@H](O)C(O)O[C@@H]2CO)[C@H](O)[C@@H](O)[C@@H]1O (stereo partly drawn) [Maltose]	Ki^b (0-18 mM substrate, 50 mM acetate buffer pH 5.0, 30°C): 38200 ± 1110 µM
	OC[C@H]1O[C@H](O[C@H]2[C@H](O)[C@@H](O)[C@@H](O[C@H]3[C@H](O)[C@@H](O)[C@@H](O[C@H]4[C@H](O)[C@@H](O)C(O)O[C@@H]4CO)O[C@@H]3CO)O[C@@H]2CO)[C@H](O)[C@@H](O)[C@@H]1O (stereo partly drawn) [Maltotetraose]	Ki^b (0-18 mM substrate, pH 5.0, 30°C): 1100 ± 60 µM
	OC[C@H]1O[C@H](O[C@H]2[C@H](O)[C@@H](O)[C@@H](O[C@H]3[C@H](O)[C@@H](O)C(O)O[C@@H]3CO)O[C@@H]2CO)[C@H](O)[C@@H](O)[C@@H]1O (stereo partly drawn) [Maltotriose]	Ki^b (0-18 mM substrate, pH 5.0, 30°C, text b46 prints approximately 4.2 mM): 4490 ± 310 µM
